Experimental data: US20260287592A1, “ANALYSIS METHOD AND ANALYSIS SYSTEM” (priority 2023, published 2026)

System: HER3
Conditions: Type3: SN-38 0.01 μM, gefitinib 0.00 μM; SKBR-3 cells, 24 hours; anti-HER3 staining

CCc1c2c(nc3ccc(O)cc13)-c1cc3c(c(=O)n1C2)COC(=O)[C@]3(O)CC [SN-38, 7-ethyl-10-hydroxycamptothecin] was tested, and the “AVERAGE VALUE OF 10 WELLS FOR NUMBER OF BRIGHT SPOTS PER CELL” value was 12.
